Where “and” joins values, the source holds several entries; their conditions need not be identical. Identical values can stand only once. Counter-ions that a name gives are not always drawn. Like-named read-outs stand apart in the source and are kept apart here.
Assays:
[1] = system: CMPD-I-sensitive, K^+ channel binding site; experiment: [^3 H]CMPD-I ligand binding to intact RINm5F cells; parameters: species or system rat; conditions: for inhibition of [^3 H]CMPD-I binding: result in words
Method: The cells were fed three times a week and passed weekly with 0.25% trypsin/0.02% EDTA (JRH Biosciences, Lenexa, Kans.). For intact cell binding experiments, RINm5F cells were plated onto 60 mm polystyrene petri dishes (Corning) at 5×10^6 cells/dish and grown for 3 days without a change of media. Alternatively, cells were seeded 1×10^6 cells/dish and grown for 7 days with the last feeding two days prior to use. Final cell density was 10-20 ×10^6 cells/dish. […] Intact cell binding was performed with the cells attached to the dishes. Binding was terminated by three successive 3 ml washes of cold (4° C.) buffer. Cells were removed from the dish in 1.6 ml of 0.5 N NaOH, briefly sonicated and radioactivity was quantitated with a liquid scintillation counter using 10 ml cocktail (Ultima Gold, Packard). Statistical analysis to determine KD and BMax was accomplished using nonlinear regression (Enzfitter, Elsevier-Biosoft, Cambridge, UK). IC50 values were determined using a sigmoidal fit of mean percent inhibition versus log of concentration. Petri dishes were removed from the incubator, media was aspirated and the cells were washed (x2) with 3 ml oxygenated (5%CO2 /95%O2) Hanks Buffer (37° C.). Cells were allowed to equilibrate in buffer at least 10 minutes. […] Dishes were incubated at 37° C., in an atmosphere of 5% CO2 /95% for 90 minutes. Bound radioligand was separated from free by aspirating the buffer and washing the cells rapidly (x3) with 3 ml ice cold (4° C.) Hanks Buffer. Cells were then removed and solubilized with the addition of 1.6 ml 0.5N NaOH. Dishes were mounted on an orbit shaker (Lab Line) and rotated at 100-125 rpm for 20-45 minutes until the cells would detach from the plates. […] The solutions were vortexed and an aliquot (10 μ`) from each tube was removed for total protein determination. The remainder (1.59 ml) was transferred to a 20 ml vial with 10 ml Ultima Gold (Packard) scintillation cocktail and mixed until the aqueous phase cleared. Each sample was counted for at least one minute by a liquid scintillation system set for counting tritium. Total protein content of each dish was determined by the method of Bradford with bovine serum albumin used as the standard. […] Percent Inhibition of specific binding by test compounds was determined by calculating: 100-[(Cpm (with Drug)-Nonspecific cpm.div.Specific cpm)×100](Basic program) Free and Bound radioligand was calculated (Basic program) and a saturation curve based on a nonlinear regression fit of the data was used to determine a KD (nM) and Bmax (fmoles/mg total cellular protein) of binding (Enzfitter, Id.). Mean percent inhibition of binding at the concentrations tested for each drug was fit to a sigmoidal function. IC50 values were calculated from the plot of the fraction of maximal inhibition versus Log of concentration (Enzfitter, Id.).

[2] = system: rat aorta; experiment: Aortic relaxation of rat aortic rings precontracted with 20 mM KCl; conditions: aortae depolarized with 20 mM KCl
Method: Male Long-Evans Hooded rats (200-400 g) were sacrificed by acute decapitation. Thoracic aortae were rapidly removed and placed in an oxygenated (100% O2) physiological saline solution (PSS) (pH 7.4) of the following composition in mM: NaCl, 130; KCl, 5.9; MgCl2, 1.2; CaCl2, 0.8; HEPES, 22 and glucose, 11.1. The aortae were trimmed of fat, cut into rings 3 mm in length, mounted in an organ bath containing 10 ml of oxygenated PSS at 37° C. and stretched to a resting tension of 2.0 g. The aortae were depolarized with 20 mM KCl and after contractile response had stabilized, vasodilators were added. The vasorelaxation produced by the drugs was reversed by glyburide (a potent antagonist of ATP-dependent K^+ channels, as described above). Prior to the aortic preparation, the instrument to measure changes in aortic tension was set up and each channel was statically calibrated for linearity using Class S metric weights from 1 to 5 grams, the range consistent with changes observed in this study. This instrument translates isometric changes in tension over time to an electrical signal expressed as a tracing that can be quantified by peak height. […] After a 90 minute equilibration the resting tension was readjusted to the baseline level. […] Percent relaxation of putative K^+ channel agonists was calculated as follows: 100-[(Peak Height (mm) after Drug.div.Initial Peak Height (mm) after 20 mM K^+)×100] […]

SMILES | inhibition of [^3 H]CMPD-I binding [1] | also measured
C=C[C@H]1C[N@@]2CC[C@H]1C[C@H]2[C@H](O)c1ccnc2ccc(OC)cc12 [quinine] | inhibit binding | –
C=C[C@H]1C[N@@]2CC[C@H]1C[C@@H]2[C@@H](O)c1ccnc2ccc(OC)cc12 [quinidine] | inhibit binding | –
COc1ccc(Cl)cc1C(=O)NCCc1ccc(S(=O)(=O)NC(=O)NC2CCCCC2)cc1 [glyburide] | inhibit binding | reversal of vasorelaxation produced by the drugs [2]: reversed
[3H]c1cc([3H])c(NC(=C[N+](=O)[O-])NC(C)C(C)(C)C)c(OCC)c1 (single isomer, unassigned) [[^3 H]CMPD-I] | – | Kd ([1]; Scatchard analysis, single binding site (FIG. 3), read-out: apparent KD): 0.7 nM; Kd ([1]; determined by saturation analysis, read-out: KD): 2 nM; Kd ([1]; two additional experiments, read-out: KD): 2.3 nM and 2.4 nM
Cc1cnc(C(=O)NCCc2ccc(S(=O)(=O)NC(=O)NC3CCCCC3)cc2)cn1 [glypizide] | inhibit binding | –
CC(N/C(=N\C#N)Nc1ccncc1)C(C)(C)C (centres unmarked) [pinacidil] | inhibited | –
Nc1cc(N2CCCCC2)nc(N)[n+]1OS(=O)(=O)[O-] [minoxidil sulfate] | inhibits binding | –
CC[N+](CC)(CC)CC [TEA] | inhibit binding | –
